Measured values reported in US11319303B2 (WIGEN BIOMEDICINE TECHNOLOGY (SHANGHAI) CO., LTD., priority 2017, dated 2022).

The compounds below were run against LC3B (Homo sapiens, UniProt Q9GZQ8) (assay: Fluorescence Polarization (FP) Assay: displacement of FITC-labeled peptide from GST-LC3B). Conditions: not given.
Format: binding
Procedure: The compounds of the present invention for regulating the autophagy-related protein LC3B were tested by Fluorescence Polarization (FP) Assay.
Fluorescence Polarization (FP) Assay Test

`CN(C)CCNC=C1C(=O)CC(c2cccc(Cl)c2F)CC1=O` (stereo not drawn) [Compound 384, 5-(3-chloro-2-fluorophenyl)-2-(((2-(dimethylamino)ethyl)amino)methylene) cyclohexane-1,3-dione] and `CN(C)CCNC=C1C(=O)CC(c2cccc(F)c2Cl)CC1=O` (stereo not drawn) [Compound 410] cannot be ordered by IC50: under 3 µM for the first, under 3 µM for the second.

`COc1ccc(C2CC(=O)C(=CNCCN(C)C)C(=O)C2)c(F)c1F` (stereo not drawn) [Compound 403, 5-(2,3-difluoro-4-methoxyphenyl)-2-(((2-(dimethylamino)ethyl)amino)methylene) cyclohexane-1,3-dione] gave an IC50 of under 3 µM.

Same assay, conditions: Fluorescence Polarization assay; GST-LC3B 180 nM, FITC-labeled peptide 18 nM, 25° C.; read-out: IC50

`CN(C)CCNC=C1C(=O)CC(c2ccc(-c3ccccc3)s2)CC1=O` (stereo not drawn) [Compound 367, 2-(((2-(dimethylamino)ethyl)amino)methylene)-5-(5-phenylthiophen-2-yl)cyclohexane-1,3-dione] and `CN(C)CCNC=C1C(=O)CC(c2cscc2-c2ccccc2)CC1=O` (stereo not drawn) [Compound 371, 2-(((2-(dimethylamino)ethyl)amino)methylene)-5-(4-phenylthiophen-3-yl)cyclohexane-1,3-dione] cannot be ordered by IC50: under 3 µM for the first, under 3 µM for the second.

`CN(C)CCNC=C1C(=O)CC(c2ccc(F)cc2Cl)CC1=O` (stereo not drawn) [Compound 370, 5-(2-chloro-4-fluorophenyl)-2-(((2-(dimethylamino)ethyl)amino)methylene) cyclohexane-1,3-dione] and `CN(C)CCNC=C1C(=O)CC(c2ccc(Cl)cc2F)CC1=O` (stereo not drawn) [Compound 382, 5-(4-chloro-2-fluorophenyl)-2-(((2-(dimethylamino)ethyl)amino)methylene) cyclohexane-1,3-dione] cannot be ordered by IC50: under 3 µM for the first, under 3 µM for the second.

`Cc1ccc(NC(=O)CN2CCN(CCNC=C3C(=O)CC(c4ccccc4Br)CC3=O)CC2)cc1` (stereo not drawn) [Compound 372, 2-(4-(2-(((4-(2-bromophenyl)-2,6-dioxocyclo-hexylidene)methyl)amino)ethyl)piperazin-1-yl)-N-(p-tolyl) acetainide] and `O=C1CC(c2ccccc2-c2c(Cl)cccc2Cl)CC(=O)C1=CNCCN1CCN(CCO)CC1` (stereo not drawn) [Compound 406, 5-(2′,6′-dichloro-[1,1′-biphenyl]-2-yl)-2-(((2-(4-(2-ethoxyl)piperazin-1-yl)ethyl)amino)methylene) cyclohexane-1,3-dione] cannot be ordered by IC50: under 3 µM for the first, under 3 µM for the second.

`CNc1cccc(C2CC(=O)C(=CNCCN3CCN(CCO)CC3)C(=O)C2)c1Br` (stereo not drawn) [Compound 374, 5-(2-bromo-3-(methylamino)phenyl)-2-(((2-(4-(2-hydroxyethyl)piperazin-1-yl)ethyl)amino)methylene) cyclohexane-1,3-dione] and `O=C1CC(c2cccc(F)c2F)CC(=O)C1=CNCCN1CCN(CCO)CC1` (stereo not drawn) [Compound 387, 5-(2,3-difluorophenyl)-2-(((2-(4-(2-ethoxyl)piperazin-1-yl)ethyl)amino)methylene) cyclohexane-1,3-dione] cannot be ordered by IC50: under 3 µM for the first, under 3 µM for the second.

`O=C1CC(c2c[nH]c3cccc(Br)c23)CC(=O)C1=CNCCN1CCN(CCO)CC1` (stereo not drawn) [Compound 375, 5-(4-bromo-1H-indol-3-yl)-2-(((2-(4-(2-hydroxyethyl)piperazin-1-yl)ethyl)amino)methylene) cyclohexane-1,3-dione] and `O=C1CC(c2c[nH]c3cccc(Cl)c23)CC(=O)C1=CNCCN1CCN(CCO)CC1` (stereo not drawn) [Compound 394, 5-(4-chloro-1H-indol-3-yl)-2-(((2-(4-(2-ethoxyl)piperazin-1-yl)ethyl)amino)methylene) cyclohexane-1,3-dione] cannot be ordered by IC50: under 3 µM for the first, under 3 µM for the second.

`CN(C)CCNC=C1C(=O)CC(c2cc(C(F)(F)F)ccc2F)CC1=O` (stereo not drawn) [Compound 376, 2-(((2-(dimethylamino)ethyl)amino)methylene)-5-(2-fluoro-5-(trifluoromethyl)phenyl) cyclohexane-1,3-dione] and `CN(C)CCNC=C1C(=O)CC(c2cc(C(F)(F)F)ccc2Cl)CC1=O` (stereo not drawn) [Compound 381, 5-(2-chloro-5-(trifluoromethyl)phenyl)-2-(((2-(dimethylamino)ethyl)amino)methylene) cyclohexane-1,3-dione] cannot be ordered by IC50: under 3 µM for the first, under 3 µM for the second.

`CN(C)CCNC=C1C(=O)CC(c2c(C(F)(F)F)ccc(Cl)c2Cl)CC1=O` (stereo not drawn) [Compound 377, 5-(2,3-dichloro-6-(trifluoromethyl)phenyl)-2-(((2-(dimethylamino)ethyl)amino)methylene) cyclohexane-1,3-dione] and `CN(C)CCNC=C1C(=O)CC(c2c(C(F)(F)F)ccc(Cl)c2F)CC1=O` (stereo not drawn) [Compound 378, 5-(3-chloro-2-fluoro-6-(trifluoromethyl)phenyl)-2-(((2-(dimethylamino)ethyl)amino)methylene) cyclohexane-1,3-dione] cannot be ordered by IC50: under 3 µM for the first, under 3 µM for the second.

`COc1cc(Br)c(C2CC(=O)C(=CNCCN(C)C)C(=O)C2)cc1OC` (stereo not drawn) [Compound 379, 5-(2-bromo-4,5-dimethoxyphenyl)-2-(((2-(dimethylamino)ethyl)amino)methylene) cyclohexane-1,3-dione] and `CN(C)CCNC=C1C(=O)CC(c2cscc2Br)CC1=O` (stereo not drawn) [Compound 388, 5-(4-bromothiophen-3-yl)-2-(((2-(dimethylamino)ethyl)amino)methylene) cyclohexane-1,3-dione] cannot be ordered by IC50: under 3 µM for the first, under 3 µM for the second.

First: Cc1ccc(NC(=O)C2CC(=O)C(=CNCCN(C)C)C(=O)C2)cc1F (stereo not drawn) [Compound 380, 4-(((2-(dimethylamino)ethyl)amino)methylene)-N-(3-fluoro-4-methylphenyl)-3,5-dioxocyclohexane-1-carboxamide]
Second: CN(C)CCNC=C1C(=O)CC(C(=O)Nc2ccc(-c3ccccc3)cc2)CC1=O (stereo not drawn) [Compound 389]
The IC50 of the first is higher: 3 to 15 µM for the first, under 3 µM for the second.

`CN(C)CCNC=C1C(=O)CC(c2c(F)cccc2F)CC1=O` (stereo not drawn) [Compound 383, 5-(2,6-difluorophenyl)-2-(((2-(dimethylamino)ethyl)amino)methylene) cyclohexane-1,3-dione] and `CN(C)CCNC=C1C(=O)CC(c2c(Cl)ccc(F)c2F)CC1=O` (stereo not drawn) [Compound 398, 5-(6-chloro-2,3-difluorophenyl)-2-(((2-(dimethylamino)ethyl)amino)methylene) cyclohexane-1,3-dione] cannot be ordered by IC50: under 3 µM for the first, under 3 µM for the second.

`CN(C)CCNC=C1C(=O)CC(c2ccccc2N)CC1=O` (stereo not drawn) [Compound 386, 5-(2-aminophenyl)-2-(((2-(dimethylamino)ethyl)amino)methylene) cyclohexane-1,3-dione] and `CN(C)CCNC=C1C(=O)CC(c2cc(Cl)ccc2F)CC1=O` (stereo not drawn) [Compound 390, 5-(5-chloro-2-fluorophenyl)-2-(((2-(dimethylamino)ethyl)amino)methylene) cyclohexane-1,3-dione] cannot be ordered by IC50: under 3 µM for the first, under 3 µM for the second.

`O=C1CC(C(O)c2ccccc2)C(=O)/C1=C\NCCN1CCN(CCO)CC1` (stereo not drawn) [Compound 391, 4-(hydroxy(phenyl)methyl)-2-(((2-(4-(2-ethoxyl)piperazin-1-yl)ethyl)amino)methylene) cyclopentane-1,3-dione] and `O=C1CC(=Cc2ccccc2)C(=O)C1=CNCCN1CCN(CCO)CC1` [Compound 407, 4-benzylidene-2-(((2-(4-(2-ethoxyl)piperazin-1-yl)ethyl)amino)methylene) cyclopentane-1,3-dione] fall in the same range of IC50: 15 to 100 µM for the first, 15 to 100 µM for the second.

`O=C1CC(c2cc3[nH]ccc3cc2Br)CC(=O)C1=CNCCN1CCN(CCO)CC1` (stereo not drawn) [Compound 392, 5-(5-bromo-1H -indol-6-yl)-2-(((2-(4-(2-ethoxyl)piperazin-1-yl)ethyl)amino)methylene) cyclohexane-1,3-dione] and `O=C1CC(c2cccc3[nH]c(Br)c(Cl)c23)CC(=O)C1=CNCCN1CCN(CCO)CC1` (stereo not drawn) [Compound 405, 5-(2-bromo-3-chloro-1H-indol-4-yl)-2-(((2-(4-(2-ethoxyl)piperazin-1-yl)ethyl)amino)methylene) cyclohexane-1-1,3-dione] cannot be ordered by IC50: under 3 µM for the first, under 3 µM for the second.

First: CCN(CC)CCCC(C)N/C=C1\C(=O)Nc2cc(Cl)ccc2C1=O (stereo not drawn) [Compound 395, 7-chloro-3-(((5-(diethylamino)penta-2-yl)amino)methylene) quinoline-2,4 (1H,3H)-dione]
Second: CN(C)CCNC=C1C(=O)CC(c2c(Cl)ccc(F)c2Cl)CC1=O (stereo not drawn) [Compound 411, 5-(2,6-dichloro-3-fluorophenyl)-2-(((2-(dimethylamino)ethyl)amino)methylene) cyclohexane-1,3-dione]
The IC50 of the first is higher: 3 to 15 µM for the first, under 3 µM for the second.

`CN(C)CCNC=C1C(=O)CC(c2c(Cl)ccc(Cl)c2Cl)CC1=O` (stereo not drawn) [Compound 397, 2-(((2-(dimethylamino)ethyl)amino)methylene)-5-(2,3,6-trichlorophenyl) cyclohexane-1,3-dione] and `CN(C)CCNC=C1C(=O)CC(c2c(Br)ccc(F)c2F)CC1=O` (stereo not drawn) [Compound 409] cannot be ordered by IC50: under 3 µM for the first, under 3 µM for the second.

`O=C1CC(c2cccc(Cl)c2Cl)CC(=O)C1=CNCCN1CCN(CCO)CC1` (stereo not drawn) [Compound 400, 5-(2,3-dichlorophenyl)-2-(((2-(4-(2-ethoxyl)piperazin-1-yl)ethyl)amino)methylene) cyclohexane-1,3-dione] and `CC(F)(F)c1ccccc1C1CC(=O)C(=CNCCN2CCN(CCO)CC2)C(=O)C1` (stereo not drawn) [Compound 404, 5-(2-(1,1-difluoroethyl)phenyl)-2-(((2-(4-(2-ethoxyl)piperazin-1-yl)ethyl)amino)methylene) cyclohexane-1,3-dione] cannot be ordered by IC50: under 3 µM for the first, under 3 µM for the second.

`CN(C)CCNC=C1C(=O)CC(c2ccc(F)c(F)c2F)CC1=O` (stereo not drawn) [Compound 401, 2-(((2-(dimethylamino)ethyl)amino)methylene)-5-(2,3,4-trifluorophenyl) cyclohexane-1,3-dione] and `CN(C)CCNC=C1C(=O)CC(c2c(F)c(F)cc(F)c2F)CC1=O` (stereo not drawn) [Compound 402, 2-(((2-(dimethylamino)ethyl)amino)methylene)-5-(2,3,5,6-tetrafluorophenyl) cyclohexane-1,3-dione] cannot be ordered by IC50: under 3 µM for the first, under 3 µM for the second.

First: O=C1CC(c2cccc(Cl)c2Cl)CC(=O)C1=CN1CCCCC1 (stereo not drawn) [Compound 408, 5-(2,3-dichlorophenyl)-2-(piperidine-1-ylmethylene) cyclohexane-1,3-dione]
Second: CN(C)CCNC=C1C(=O)CC(c2c(F)c(F)c(F)c(F)c2F)CC1=O (stereo not drawn) [Compound 412, 2-(((2-(dimethylamino)ethyl)amino)methylene)-5-(perfluorophenyl) cyclohexane-1,3-dione]
The IC50 of the first is higher: 3 to 15 µM for the first, under 3 µM for the second.
